Experimental data published in patent publication US20250011368A1, “DLL3 TARGETING PEPTIDES AND CONSTRUCTS THEREOF” (MARIANA ONCOLOGY INC., priority 2023, published 2025).
Numbered stars: 1 amine (or outer) side, 2 acyl side, 3 side chain; on linkers, the order of the positions; unused ones are H or OH. Bridge positions count the residues as written; N and C are the ends. Square brackets hold non-standard residues; d marks the D form. Side chains are listed from the residue outwards. Peptide text beside a SMILES is read from it. * marks the point of attachment. ξ: configuration not given here. X1 = O=C(O)CN1CCN(CC(=O)O)CCN(CC(=O)NCCCC[C@@H](NC(=O)CCOCCOCCOCCOCCOCCOCCOCCOCCOCCOCCOCCOCCNC(=O)Cc2ccc(Br)cc2)C(=O)NCCOCCOCCOCCOCCOCCOCCOCCOCC(=O)*)CCN(CC(=O)O)CC1; PEG24 = NCCOCCOCCOCCOCCOCCOCCOCCOCCOCCOCCOCCOCCOCCOCCOCCOCCOCCOCCOCCOCCOCCOCCOCCOCCC(=O)O; Ala(piperidin-4-yl) = O=C([C@H](CC1CCN([*:3])CC1)N[*:1])[*:2]; DOTA = O=C(O)CN1CCN(CC(=O)O)CCN(CC(=O)*)CCN(CC(=O)O)CC1; γGlu = O=C(O)[C@H](CCC(=O)[*:2])N[*:1]; 2Nal = N[C@@H](Cc1ccc2ccccc2c1)C(=O)O; Palmitoyl = CCCCCCCCCCCCCCCC(=O)*; αMeI = CC[C@H](C)[C@](C)(N)C(=O)O; 3Pal = N[C@@H](Cc1cccnc1)C(=O)O; Chg = N[C@H](C(=O)O)C1CCCCC1; NMeNle = CCCC[C@H](NC)C(=O)O; ξαMeD = CC(N)(CC(=O)O)C(=O)O; Ahx = NCCCCCC(=O)O

Key:
SHP-77 tumors = assay: Ex vivo biodistribution of radiolabeled peptides in nude mice bearing SHP-77 tumors; conditions: [177Lu]Lu labelling, nude mice bearing SHP-77 tumors (n = 3), 24 hours post-injection
Experimental: Mice were intravenously injected (via the lateral tail vein) with a bolus dose of the radiolabeled peptides for ex vivo biodistribution studies when tumor volumes were in range of 200-400 mm^3 for xenograft mice and when age of the mice was 5-7 weeks for tumor naïve mice studies. To assess the amount of radionuclide injected into individual mice the syringe was assayed in a dose calibrator before and after injection for [^177Lu]Lu-peptide.
Mice were euthanized at pre-determined time points and selected tissues were resected and collected into pre-weighed tubes. The tubes were then reweighed post resection, the difference giving the weight of each tissue. Radioactivity in each tissue was measured using a gamma counter. Counts were decay corrected to the time of injection and percentage of injected activity per gram (% IA/g) was calculated for each tissue based on the injected activity into each individual mouse. Injected activity was converted to counts based on the sensitivity of the gamma counter. The counts in tissue were then converted to the percentage of injected activity and this was divided by the mass of tissue to give % IA/g.

human DLL3 = target: T1, human DLL3 (Homo sapiens, UniProt Q9NYJ7); assay: Affinity determination by Surface Plasmon Resonance (SPR); format: binding; conditions: 25° C., biotinylated human DLL3 immobilized on streptavidin sensor chip, 1:1 binding model; read-out: SPR KD
T1 sequence (Q9NYJ7 27-618): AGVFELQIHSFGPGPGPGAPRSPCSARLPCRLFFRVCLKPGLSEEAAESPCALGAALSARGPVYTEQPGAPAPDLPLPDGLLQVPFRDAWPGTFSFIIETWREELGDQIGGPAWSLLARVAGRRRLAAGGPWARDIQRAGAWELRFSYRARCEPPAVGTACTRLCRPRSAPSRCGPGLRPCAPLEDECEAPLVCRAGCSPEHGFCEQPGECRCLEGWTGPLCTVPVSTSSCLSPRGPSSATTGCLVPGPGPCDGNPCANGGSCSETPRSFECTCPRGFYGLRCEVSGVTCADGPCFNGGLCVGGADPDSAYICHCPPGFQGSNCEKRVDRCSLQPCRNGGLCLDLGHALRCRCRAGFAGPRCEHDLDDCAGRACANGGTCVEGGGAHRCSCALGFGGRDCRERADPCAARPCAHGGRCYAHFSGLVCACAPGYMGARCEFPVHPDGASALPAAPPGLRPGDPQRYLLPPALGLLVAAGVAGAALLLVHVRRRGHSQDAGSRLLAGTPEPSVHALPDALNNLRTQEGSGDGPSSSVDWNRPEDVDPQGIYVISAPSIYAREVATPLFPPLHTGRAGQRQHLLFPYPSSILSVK
Method in brief: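 Biotinylated human DLL3 was captured on a streptavidin chip with a reference surface. Compounds at several concentrations were injected at 100 μL/minute in phosphate buffer (137 mM NaCl, 2.7 mM KCl, 0.05% P20, 2% DMSO). Affinity and kinetics came from 1:1 model fits of the sensorgrams.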

Compound	kidney uptake (% IA/g) (SHP-77 tumors)	tumor uptake (% IA/g) (SHP-77 tumors)	Kd (human DLL3) [nM]
CC[C@H](C)[C@H](NC(=O)[C@@H](NC(=O)[C@H](Cc1c[nH]c2ccccc12)NC(C)=O)[C@@H](C)O)C(=O)N[C@H]1CSSC[C@@H](C(=O)N[C@@H](Cc2c[nH]c3ccccc23)C(=O)N2CCC[C@H]2C(=O)N[C@H](CCCCNC(=O)CCCCCNC(=O)CN2CCN(CC(=O)O)CCN(CC(=O)O)CCN(CC(=O)O)CC2)C(N)=O)NC(=O)[C@H](CC(=O)O)NC(=O)[C@H](Cc2cnc[nH]2)NC(=O)[C@H](Cc2c[nH]c3ccccc23)NC(=O)[C@H](CC(N)=O)NC(=O)[C@H](CC(N)=O)NC1=O [compound 47, Ac-W-T-I-C(3)-N-N-W-H-D-C(3)-W-P-(D-Lys)-Ahx-DOTA-NH2] (Ac-WTICNNWHDCWP[dK]([Ahx-DOTA])-NH2; disulfide 4-10)	D (% IA/g > 10 in kidney)	A (0 < % IA/g ≤ 5 in tumor)	1 to 10
CC[C@H](C)[C@H](NC(=O)[C@@H](NC(=O)[C@H](Cc1c[nH]c2ccccc12)NC(C)=O)[C@@H](C)O)C(=O)N[C@H]1CSSC[C@@H](C(=O)N[C@@H](Cc2c[nH]c3ccccc23)C(=O)N2CCC[C@H]2C(=O)N[C@H](CCCCNC(=O)COCCOCCOCCOCCOCCOCCOCCOCCNC(=O)[C@@H](CCCCNC(=O)CN2CCN(CC(=O)O)CCN(CC(=O)O)CCN(CC(=O)O)CC2)NC(=O)CCOCCOCCOCCOCCOCCOCCOCCOCCOCCOCCOCCOCCNC(=O)Cc2ccc(Br)cc2)C(N)=O)NC(=O)[C@H](CC(=O)O)NC(=O)[C@H](Cc2c[nH]cn2)NC(=O)[C@H](Cc2ccc3ccccc3c2)NC(=O)[C@H](CC(N)=O)NC(=O)[C@H](CC(N)=O)NC1=O [compound 252, Ac-W-T-I-C(3)-N-N-(2Nal)-H-D-C(3)-W-P-{D-Lys[PEG8-D-Lys(DOTA)-PEG12-COCH2Ph-4Br]}-NH2] (Ac-WTICNN[2Nal]HDCWP[dK](X1)-NH2; disulfide 4-10)	D (% IA/g > 10 in kidney)	A (0 < % IA/g ≤ 5 in tumor)	
CC[C@H](C)[C@H](NC(=O)[C@@H](NC(=O)[C@H](Cc1c[nH]c2ccccc12)NC(C)=O)[C@@H](C)O)C(=O)N[C@H]1CSSC[C@@H](C(=O)N[C@@H](Cc2c[nH]c3ccccc23)C(=O)N2CCC[C@H]2C(=O)N[C@H](CCCCNC(=O)CN2CCN(CC(=O)O)CCN(CC(=O)O)CCN(CC(=O)O)CC2)C(N)=O)NC(=O)[C@H](CC(=O)O)NC(=O)[C@H](Cc2cnc[nH]2)NC(=O)[C@H](Cc2ccc3ccccc3c2)NC(=O)[C@H](Cc2cccnc2)NC(=O)[C@H](CC(N)=O)NC1=O [compound 265, Ac-W-T-I-C(3)-N-(3Pya)-(2Nal)-H-D-C(3)-W-P-[D-Lys(DOTA)]-NH2] (Ac-WTICN[3Pal][2Nal]HDCWP[dK](DOTA)-NH2; disulfide 4-10)	D (% IA/g > 10 in kidney)	A (0 < % IA/g ≤ 5 in tumor)	< 1
CC(=O)N[C@@H](Cc1c[nH]c2ccccc12)C(=O)N[C@H](C(=O)N[C@H](C(=O)N[C@H]1CSSC[C@@H](C(=O)N[C@@H](Cc2c[nH]c3ccccc23)C(=O)N2CCC[C@H]2C(=O)N[C@H](CCCCNC(=O)CN2CCN(CC(=O)O)CCN(CC(=O)O)CCN(CC(=O)O)CC2)C(N)=O)NC(=O)[C@H](CC(=O)O)NC(=O)[C@H](Cc2cnc[nH]2)NC(=O)[C@H](Cc2ccc3ccccc3c2)NC(=O)[C@H](CC(N)=O)NC(=O)[C@H](CC2CCNCC2)NC1=O)C1CCCCC1)[C@@H](C)O [compound 280, Ac-W-T-(Chg)-C(3)-[3-(4-piperidinyl)-Ala]-N-(2Nal)-H-D-C(3)-W-P-[D-Lys(DOTA)]-NH2] (Ac-WT[Chg]C[Ala(piperidin-4-yl)]N[2Nal]HDCWP[dK](DOTA)-NH2; disulfide 4-10)	C (0 < % IA/g ≤ 10 in kidney)	A (0 < % IA/g ≤ 5 in tumor)	< 1
CC[C@H](C)[C@](C)(NC(=O)[C@@H](NC(=O)[C@H](Cc1c[nH]c2ccccc12)NC(C)=O)[C@@H](C)O)C(=O)N[C@H]1CSSC[C@@H](C(=O)N[C@@H](Cc2c[nH]c3ccccc23)C(=O)N2CCC[C@H]2C(=O)N[C@H](CCCCNC(=O)CN2CCN(CC(=O)O)CCN(CC(=O)O)CCN(CC(=O)O)CC2)C(N)=O)NC(=O)[C@H](CC(=O)O)NC(=O)[C@H](Cc2cnc[nH]2)NC(=O)[C@H](Cc2c[nH]c3ccccc23)NC(=O)[C@H](CC(N)=O)NC(=O)[C@H](CC(N)=O)NC1=O [compound 409, Ac-W-T-(aMe-I)-C(3)-N-N-W-H-D-C(3)-W-P-[D-Lys(DOTA)]-NH2] (Ac-WT[αMeI]CNNWHDCWP[dK](DOTA)-NH2; disulfide 4-10)			10 to 100
CC[C@H](C)[C@H](NC(=O)[C@@H](NC(=O)[C@H](Cc1c[nH]c2ccccc12)NC(C)=O)[C@@H](C)O)C(=O)N[C@H]1CSSC[C@@H](C(=O)N[C@@H](Cc2c[nH]c3ccccc23)C(=O)N2CCC[C@H]2C(=O)N[C@H](CCCCNC(=O)CN2CCN(CC(=O)O)CCN(CC(=O)O)CCN(CC(=O)O)CC2)C(N)=O)NC(=O)C(C)(CC(=O)O)NC(=O)[C@H](Cc2cnc[nH]2)NC(=O)[C@H](Cc2c[nH]c3ccccc23)NC(=O)[C@H](CC(N)=O)NC(=O)[C@H](CC(N)=O)NC1=O (stereo partly drawn) [compound 410, Ac-W-T-I-C(3)-N-N-W-H-(aMe-D)-C(3)-W-P-[D-Lys(DOTA)]-NH2] (Ac-WTICNNWH[ξαMeD]CWP[dK](DOTA)-NH2; disulfide 4-10)			1 to 10
CCCCCCCCCCCCCCCC(=O)N[C@@H](CCC(=O)NCCOCCOCCOCCOCCOCCOCCOCCOCCOCCOCCOCCOCCOCCOCCOCCOCCOCCOCCOCCOCCOCCOCCOCCOCCC(=O)NCCCC[C@@H]1NC(=O)[C@H](Cc2ccc3ccccc3c2)NC(=O)[C@H](CC(N)=O)NC(=O)[C@H](CC2CCNCC2)NC(=O)[C@@H](NC(=O)[C@@H](NC(=O)[C@@H](NC(=O)[C@H](Cc2c[nH]c3ccccc23)NC(C)=O)[C@@H](C)O)C2CCCCC2)CSSC[C@@H](C(=O)N[C@@H](Cc2c[nH]c3ccccc23)C(=O)N2CCC[C@H]2C(=O)N[C@H](CCCCNC(=O)CN2CCN(CC(=O)O)CCN(CC(=O)O)CCN(CC(=O)O)CC2)C(N)=O)NC(=O)[C@H](CC(=O)O)NC1=O)C(=O)O [compound 426, Ac-WT-(Chg)-C(3)-[3-(4-piperidinyl)-Ala]-N-(2Nal)-Lys(PEG24-[gE(C16)]-OH)-D-C(3)-W-P-[D-Lys(DOTA)]-NH2] (Ac-WT[Chg]C[Ala(piperidin-4-yl)]N[2Nal]K([PEG24-γGlu-Palmitoyl])DCWP[dK](DOTA)-NH2; disulfide 4-10)			1 to 10
CCCCCCCCCCCCCCCC(=O)N[C@@H](CCC(=O)NCCOCCOCCOCCOCCOCCOCCOCCOCCOCCOCCOCCOCCOCCOCCOCCOCCOCCOCCOCCOCCOCCOCCOCCOCCC(=O)NCCCC[C@@H]1NC(=O)[C@H](Cc2ccc3ccccc3c2)NC(=O)[C@H](CC(N)=O)NC(=O)[C@H](CC2CCNCC2)NC(=O)[C@@H](NC(=O)[C@H](CCCC)N(C)C(=O)[C@@H](NC(=O)[C@H](Cc2c[nH]c3ccccc23)NC(C)=O)[C@@H](C)O)CSSC[C@@H](C(=O)N[C@@H](Cc2c[nH]c3ccccc23)C(=O)N2CCC[C@H]2C(=O)N[C@H](CCCCNC(=O)CN2CCN(CC(=O)O)CCN(CC(=O)O)CCN(CC(=O)O)CC2)C(N)=O)NC(=O)[C@H](CC(=O)O)NC1=O)C(=O)O [compound 427, Ac-W-T-(NMe-Nle)-C(3)-[3-(4-piperidinyl)-Ala]-N-(2Nal)-Lys(PEG24-[gE(C16)]-OH)-D-C(3)-W-P-[D-Lys(DOTA)]-NH2] (Ac-WT[NMeNle]C[Ala(piperidin-4-yl)]N[2Nal]K([PEG24-γGlu-Palmitoyl])DCWP[dK](DOTA)-NH2; disulfide 4-10)			10 to 100
CC[C@H](C)[C@H](NC(=O)[C@@H](NC(=O)[C@H](Cc1c[nH]c2ccccc12)NC(C)=O)[C@@H](C)O)C(=O)N[C@H]1CSSC[C@@H](C(=O)N[C@@H](Cc2c[nH]c3ccccc23)C(=O)N2CCC[C@H]2C(=O)N[C@H](CCCCNC(=O)CN2CCN(CC(=O)O)CCN(CC(=O)O)CCN(CC(=O)O)CC2)C(N)=O)NC(=O)[C@H](CC(=O)O)NC(=O)[C@H](Cc2cnc[nH]2)NC(=O)[C@H](Cc2ccc3ccccc3c2)NC(=O)[C@H](CC(N)=O)NC(=O)[C@H](CCCCN)NC1=O [compound 451, Ac-W-T-I-C(3)-K-N-(2Nal)-H-D-C(3)-W-P-[D-Lys(DOTA)]-CONH2] (Ac-WTICKN[2Nal]HDCWP[dK](DOTA)-NH2; disulfide 4-10)	D (% IA/g > 10 in kidney)	A (0 < % IA/g ≤ 5 in tumor)	
Ac-W-T-I-C(3)-N-N-(2Nal)-(4Pya)-D-C(3)-W-P-[D-Lys(DOTA)]-NH2 [compound 367]			< 1
